Tested on: ALK2 mutant DIPG cell
Experiment: not given
Conditions: ALK2 mutant DIPG cells; cited from earlier work

In the case of `c1ccc2c(-c3cnn4cc(-c5ccc(N6CCNCC6)cc5)cnc34)ccnc2c1` [LDN-19318917], the “inhibition of ALK2 mutant DIPG cell viability” value is listed as “significant inhibition”.

Molecular target: ALK2 (aa 147-end) (Homo sapiens (Human), UniProt Q04771)
Experiment: ALK2 HTRF Assay
Assay type: biochemical
Conditions: not given
Method: The enzymatic assays were conducted in white 384-well polystyrene plates in a final volume of 8 μL. The inhibitors were serially diluted in DMSO and added to the plate wells prior to addition of the other reaction components. The assays were carried out at 25° C. in the assay buffer (50 mM HEPES, pH 7.0, 10% Glycerol, 0.01% Brij50, 10 mM MgCl2, 1 mM EGTA, 5 mM DTT, and 0.01% BSA), containing 50 nM LANCE Ultra ULight™-DNA Topoisomerase 2-alpha peptide (Perkin Elmer TRF0130), and 3 μM ATP. The final concentration of DMSO in the assay was 1% and the enzyme concentration was 0.5 nM for ALK2. […] […] IC50 determination was performed by fitting percent control activity versus the log of the inhibitor concentration using the IDBS XLFit and GraphPad Prism 5.0 software.

Chain of ALK2 (aa 147-end) (Q04771 147-509): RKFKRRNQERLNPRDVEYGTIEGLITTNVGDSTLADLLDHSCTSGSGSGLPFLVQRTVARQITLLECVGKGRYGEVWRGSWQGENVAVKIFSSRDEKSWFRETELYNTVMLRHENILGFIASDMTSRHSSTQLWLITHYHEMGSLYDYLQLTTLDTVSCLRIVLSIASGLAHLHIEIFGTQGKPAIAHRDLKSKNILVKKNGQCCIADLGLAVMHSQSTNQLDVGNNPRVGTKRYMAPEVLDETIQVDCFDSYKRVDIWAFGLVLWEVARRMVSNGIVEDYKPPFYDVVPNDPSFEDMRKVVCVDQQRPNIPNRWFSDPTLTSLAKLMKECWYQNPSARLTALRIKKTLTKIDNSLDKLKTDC

First: Cc1nn2c(-c3ccnc4cc(C#N)ccc34)cnc2cc1-c1ccc(N2CCNCC2)cc1 [Example 30, 4-(6-methyl-7-(4-(piperazin-1-yl)phenyl)imidazo[1,2-b]pyridazin-3-yl)quinoline-7-carbonitrile]
Second: COCc1nn2c(-c3ccnc4ccccc34)cnc2cc1-c1ccc(N2CCNCC2)cc1 [Example 8, 4-(6-(Methoxymethyl)-7-(4-(piperazin-1-yl)phenyl)imidazo[1,2-b]pyridazin-3-yl)quinoline]
The IC50 of the first is higher: 5 to 100 nM for the first, 1 to 5 nM for the second. The second is the more potent here.

Same assay, conditions: 3 μM ATP, 0.5 nM ALK2, 2 hr, 25° C.; read-out: ALK2 IC50

First: CC(=O)N1CCN(c2ccc3c(-c4cnc5cc(-c6ccc(N7CCNCC7)cc6)c(C)nn45)ccnc3c2)CC1 [Example 23, 1-(4-(4-(6-methyl-7-(4-(piperazin-1-yl)phenyl)imidazo[1,2-b]pyridazin-3-yl)quinolin-7-yl)piperazin-1-yl)ethan-1-one]
Second: Cc1nn2c(-c3ccnc4cc(C(=O)N5CCN(C)CC5)ccc34)cnc2cc1-c1ccc(N2CCNCC2)cc1 [Example 17, (4-(6-methyl-7-(4-(piperazin-1-yl)phenyl)imidazo[1,2-b]pyridazin-3-yl)quinolin-7-yl)(4-methylpiperazin-1-yl)methanone]
The IC50 of the first is lower: 5 to 100 nM for the first, over 100 nM for the second.

First: CNC(=O)c1ccc2c(-c3cnc4cc(-c5ccc(N6CCNCC6)cc5)c(C)nn34)ccnc2c1 [Example 16, N-methyl-4-(6-methyl-7-(4-(piperazin-1-yl)phenyl)imidazo[1,2-b]pyridazin-3-yl)quinoline-7-carboxamide]
Second: Cc1nn2c(-c3ccnc4cc(Nc5cccnc5)ccc34)cnc2cc1-c1ccc(N2CCNCC2)cc1 [Example 22, 4-(6-methyl-7-(4-(piperazin-1-yl)phenyl)imidazo[1,2-b]pyridazin-3-yl)-N-(pyridin-3-yl)quinolin-7-amine]
The IC50 of the first is higher: 1 to 5 nM for the first, under 1 nM for the second. The second is the more potent here.

First: Cc1nn2c(-c3ccnc4c3CCN4C(=O)c3ccncc3)cnc2cc1-c1cnn(C2CCOCC2)c1 [Example 32, (4-(6-methyl-7-(1-(tetrahydro-2H-pyran-4-yl)-1H-pyrazol-4-yl)imidazo[1,2-b]pyridazin-3-yl)-2,3-dihydro-1H-pyrrolo[2,3-b]pyridin-1-yl)(pyridin-4-yl)methanone]
Second: Cc1cnn(-c2ccc3c(-c4cnc5cc(-c6cnn(C7CCOCC7)c6)c(C)nn45)ccnc3n2)n1 [Example 62, 2-(4-Methyl-2H-1,2,3-triazol-2-yl)-5-(6-methyl-7-(1-(tetrahydro-2H-pyran-4-yl)-1H-pyrazol-4-yl)imidazo[1,2-b]pyridazin-3-yl)-1,8-naphthyridine]
The IC50 of the first is higher: 5 to 100 nM for the first, under 1 nM for the second. The second is the more potent here.

`Cc1nn2c(-c3ccnc4nc(-c5cnccn5)ccc34)cnc2cc1-c1cnn([C@H]2CC[C@H](O)CC2)c1` [Example 41, (1R,4R)-4-(4-(6-Methyl-3-(7-(pyrazin-2-yl)-1,8-naphthyridin-4-yl)imidazo[1,2-b]pyridazin-7-yl)-1H-pyrazol-1-yl)cyclohexan-1-ol] and `CCn1cc(-c2cc3ncc(-c4ccnc5nc(-c6ccccn6)ccc45)n3nc2C)cn1` [Example 39, 5-(7-(1-Ethyl-1H-pyrazol-4-yl)-6-methylimidazo[1,2-b]pyridazin-3-yl)-2-(pyridin-2-yl)-1,8-naphthyridine] fall in the same range of IC50: 1 to 5 nM for the first, 1 to 5 nM for the second.

`Cc1cc(-c2ccc3c(-c4cnc5cc(-c6cnn(C(C)C)c6)c(C)nn45)ccnc3n2)n[nH]1` [Example 50, 5-(7-(1-Isopropyl-1H-pyrazol-4-yl)-6-methylimidazo[1,2-b]pyridazin-3-yl)-2-(5-methyl-1H-pyrazol-3-yl)-1,8-naphthyridine] and `CCn1cnc(-c2ccc3c(-c4cnc5cc(-c6ccc(CN7CCCC7)cc6)c(C)nn45)ccnc3n2)c1` [Example 52, 2-(1-Ethyl-1H-imidazol-4-yl)-5-(6-methyl-7-(4-(pyrrolidin-1-ylmethyl)phenyl)imidazo[1,2-b]pyridazin-3-yl)-1,8-naphthyridine] cannot be ordered by IC50: under 1 nM for the first, under 1 nM for the second.

First: Cc1nn2c(-c3ccnc4nc(-c5ccccn5)ccc34)cnc2cc1-c1ccc(CN2CCC2)cc1 [Example 38, 5-(7-(4-(Azetidin-1-ylmethyl)phenyl)-6-methylimidazo[1,2-b]pyridazin-3-yl)-2-(pyridin-2-yl)-1,8-naphthyridine]
Second: CCn1cnc(-c2ccc3c(-c4cnc5cc(-c6ccc(CN7CCO[C@H](CO)C7)cc6)c(C)nn45)ccnc3n2)c1 [Example 59, (S)-(4-(4-(3-(7-(1-ethyl-1H-imidazol-4-yl)-1,8-naphthyridin-4-yl)-6-methylimidazo[1,2-b]pyridazin-7-yl)benzyl)morpholin-2-yl)methanol]
The IC50 of the first is lower: under 1 nM for the first, 1 to 5 nM for the second. The first is the more potent here.

First: Cc1cnn(-c2ccc3c(-c4cnc5cc(-c6ccc(CN7CCOCC7)cc6)c(C)nn45)ccnc3n2)n1 [Example 64, 4-(4-(6-Methyl-3-(7-(4-methyl-2H-1,2,3-triazol-2-yl)-1,8-naphthyridin-4-yl)imidazo[1,2-b]pyridazin-7-yl)benzyl)morpholine]
Second: Cc1nn2c(-c3ccnc4cc(N5CCN6C(=O)CCC6C5)ccc34)cnc2cc1-c1cnn([C@H]2CC[C@H](O)CC2)c1 (stereo partly drawn) [Example 34, 2-(4-(7-(1-((1R,4R)-4-hydroxycyclohexyl)-1H-pyrazol-4-yl)-6-methylimidazo[1,2-b]pyridazin-3-yl)quinolin-7-yl)hexahydropyrrolo[1,2-a]pyrazin-6(2H)-one]
The IC50 of the first is lower: 1 to 5 nM for the first, 5 to 100 nM for the second.

Work on `CC(=O)N1C[C@@H]2C[C@H]1CN2c1ccc2c(-c3cnc4cc(-c5cnn([C@H]6CC[C@H](O)CC6)c5)c(C)nn34)ccnc2c1` [Example 33, 1-((1S,4S)-5-(4-(7-(1-((1R,4R)-4-hydroxycyclohexyl)-1H-pyrazol-4-yl)-6-methylimidazo[1,2-b]pyridazin-3-yl)quinolin-7-yl)-2,5-diazabicyclo[2.2.1]heptan-2-yl)ethan-1-one] yielded an IC50 of 5 to 100 nM.

— patent US11459329B2, “Imidazopyridazine and imidazopyridine compounds and uses thereof” (Incyte Corporation, priority 2018, dated 2022)
